# Literature values, collected in US20240277756A1 (NACAMED AS, priority 2021, published 2024).
# How the values were obtained:
# [1] = calculated log P values from Foye's Principles of Medicinal Chemistry, Seventh Edition (2011)
# [2] = oral
SMILES,log P [1],absolute bioavailability (in words) [2]
CCCc1nc(C)c2c(=O)nc(-c3cc(S(=O)(=O)N4CCN(CC)CC4)ccc3OCC)[nH]n12 [valdanafil],3.64,–
C[C@@H]1[C@H](O)[C@@H](C)/C=C/C=C/C=C/C=C/C=C/C=C/C=C/[C@H](O[C@@H]2O[C@H](C)[C@@H](O)[C@H](N)[C@@H]2O)C[C@@H]2O[C@](O)(C[C@@H](O)C[C@@H](O)[C@H](O)CC[C@@H](O)C[C@@H](O)CC(=O)O[C@H]1C)C[C@H](O)[C@H]2C(=O)O [amphotericin B],–,very low
